Laboratory results published in paper PMC5947712, “High‐Throughput Kinetic Analysis for Target‐Directed Covalent Ligand Discovery” (Angewandte Chemie (International Ed. in English), 2018).

Experiments:
[1] = biological target: T1, Cdk2(WT) (Homo sapiens, UniProt P24941); assay: TdCD melting temperature of acrylamide-modified Cdk2; type: binding; set-up: made in house; host or cells: E. coli Tuner(DE3); conditions: compound-modified Cdk2(WT), n=3
Method: GSTBCdk2" and" GSTBcyclin" A2:! Harvested! cells! were! resuspended! in! 50! mM! HEPES! buffer! (pH7.5)! containing! 150! mM! NaCl,!
10!mM!MgCl2,!2!mM!dithiothreitol!(DTT),!0.5!mg!mLR1!lysozyme,!and!0.01%!Triton!XR100!at!4!˚C!and!incubated!for!30!minutes.!
After! sonication! and! centrifugation! (40! min,! 16000! g),! the! supernatant! was! incubated! for! 1! h! with! glutathioneRSepharose!
beads,! washed! with! lysis! buffer! and! the! desired! protein! eluted! with! 10! mM! GSH! (100! mM! Tris,! pH! 8).! After! incubation! the! deR
sired! protein! was! cleaved! from! the! GST! tag! with! PreScission! protease! (100:1)! at! 4 °C! for! 4! hours,! the! cleaved! GST! tag! was!
removed! with! glutathioneRSepharose! beads.! Cdk2! was! concentrated! and! then! loaded! onto! a! Superdex! 75! (16/60)! column,!
eluting! with! 100! mM! phosphate! buffer! containing! 50! mM! DTT.! Purified! Cdk2! was! concentrated! to! 10! mg! mLR1!and! stored! at!–
80! ˚C.! Cyclin! A2! was! purified! by! glutathioneRSepharose! affinity! as! described! above! with! the! following! amendments:! 100! mM!
MgCl2!was! added! after! GST! cleavage! to! minimise! protein! aggregation! and! gel! filtration! was! performed! with! 50! mM! HEPES!
buffer! (pH! 7.5)! containing! 150! mM! NaCl,! 100! mM! MgCl2,! 2! mM! DTT.! ! […]
(§1) labelling! reached! completion! (as! monitored! by! fluorescence! quench! assay! and/or! intact! protein! mass! spectrometry).! […]

[2] = biological target: T1, Cdk2(WT); assay: Intact protein mass spectrometry of labelling, Cdk2(WT); type: binding; set-up: made in house; host or cells: E. coli Tuner(DE3)
Method: Supplementary, Figure, S6!|!Acrylamide, 1,selectivity, profile.!Exponential! regressions! from!kinetic! analysis! of! acrylamide!1!
(0.5!mM)!in!reaction!with!various!thiols!(5!µM).!
Supplementary, Figure, S7!|!Cdk2(WT),is, mono%modified, by, acrylamide, 1.!(a)!Cdk2(WT)! was! phosphorylated! with! CAK1.!
pCdk2(WT)! (5! µM)! was! then! incubated! with! acrylamide!1!(0.5! mM)! in! 100! mM! phosphate! buffer!(pH! 8.0)! at! 4! ˚C! for! 18! hours.!
IntactRprotein! mass! spectra! show! complete! phosphorylation! (ΔMW! =! 80! Da)! and! complete! acrylamide! labeling! (ΔMW! =!
288!Da).!(b)!Cdk2(WT)! (5! µM)! was! incubated! with! acrylamide!1!(0.5! mM)! in! 100! mM! phosphate! buffer! (pH! 8.0)!in! the!presR
ence! or! absence! of! GSH! (1! mM)! at! room! temperature.!The! degree! of! labelling! was! monitored! by!intactRprotein! mass!specR
trometry!after!6.25!and!24!h.!The!presence!of!1!mM!GSH!was!found!to!slow!the!rate!of!Cdk2!modification!by!a!factor!of!~2.! […]
Hs!Cyclin!A2!F!5’![…]!
Hs!Cyclin!A2!R!5’![…]!
Sc!CAK1!R!5’!GAATTCttatgggcttttctaattcttgcaag!
GSTBCdk2" and" GSTBcyclin" A2:! Harvested! cells! were! resuspended! in! 50! mM! HEPES! buffer! (pH7.5)! containing! 150! mM! NaCl,! […]
as §1

| Compound | Tm ± s.e.m [1] | factor by which 1 mM GSH slows the rate of Cdk2 modification ([2]; Cdk2(WT) 5 µM, compound 0.5 mM, pH 8.0, room temperature, monitored after 6.25 and 24 h) | modification of Cdk2(WT) by intact protein mass spectrometry ([2]; even in the presence of millimolar glutathione) |
| --- | --- | --- | --- |
| C=CC(=O)N1CCN(C(=O)OC(C)(C)C)c2ccccc21 [Acrylamide 1] | 48.95 ± 0.25 ˚C | ~ 2 | mono‐modifies |
| C=CC(=O)N1CCN(C(=O)OC)c2ccccc21 [Acrylamide 2] | 50.56 ± 0.24 ˚C |  |  |
